Molecular target: Autotaxin (Homo sapiens (Human), UniProt Q13822)
Test: Autotaxin LPC Cascade Assay
Type: biochemical
Settings: Autotaxin 5 nM, LPC 100 μM, choline oxidase/HRP/Ampliflu Red fluorescence read-out, 2% DMSO, RT; read-out: IC50 ATX Activity
How it was run: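 Choline liberated from LPC by autotaxin during 1 h, after a 10-min RT compound preincubation, was converted through choline oxidase/HRP to a fluorescent Ampliflu Red product.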

| IC50 [nM] | Structure (SMILES) |
| --- | --- |
| 500 to 1000 | CC(C)[C@@H](NC(=O)c1cc(C(F)(F)F)ccc1F)C(=O)N1CCC2(CC1)C(=O)N(C)C(=O)N2Cc1ccn2ccnc2c1 [Example 102, (R)-2-Fluoro-N-(1-(1-(imidazo[1,2-a]pyridin-7-ylmethyl)-3-methyl-2,4-dioxo-1,3,8-triazaspiro[4.5]decan-8-yl)-3-methyl-1-oxobutan-2-yl)-5-(trifluoromethyl)benzamide] |
| 500 to 1000 | CC(C)[C@@H](NC(=O)c1cc(C(F)(F)F)ccc1F)C(=O)N1CCC2(CC1)C(=O)N(C)C(=O)N2Cc1cccc(S(C)(=O)=O)c1 [Example 103, (R)-2-Fluoro-N-(3-methyl-1-(3-methyl-1-(3-(methylsulfonyl)benzyl)-2,4-dioxo-1,3,8-triazaspiro[4.5]decan-8-yl)-1-oxobutan-2-yl)-5-(trifluoromethyl)benzamide] |
| < 500 | CC(C)[C@@H](NC(=O)c1cc(C(F)(F)F)ccc1F)C(=O)N1CCC2(CC1)C(=O)N(C)C(=O)N2Cc1cccc(Cl)c1 [Example 104, (R)—N-(1-(1-(3-Chlorobenzyl)-3-methyl-2,4-dioxo-1,3,8-triazaspiro[4.5]decan-8-yl)-3-methyl-1-oxobutan-2-yl)-2-fluoro-5-(trifluoromethyl)benzamide] |
| < 500 | CC(C)[C@@H](NC(=O)c1cc(C(F)(F)F)ccc1F)C(=O)N1CCC2(CC1)C(=O)N(C)C(=O)N2Cc1ccc2oc(=O)n(C)c2c1 [Example 105, (R)-2-Fluoro-N-(3-methyl-1-(3-methyl-1-((3-methyl-2-oxo-2,3-dihydrobenzo[d]oxazol-5-yl)methyl)-2,4-dioxo-1,3,8-triazaspiro[4.5]decan-8-yl)-1-oxobutan-2-yl)-5-(trifluoromethyl)benzamide] |
| < 500 | COc1ccc(F)c(CN2C(=O)N(C)C(=O)C23CCN(C(=O)[C@H](NC(=O)c2cc(C(F)(F)F)ccc2F)C(C)C)CC3)c1 [Example 107, (R)-2-Fluoro-N-(1-(1-(2-fluoro-5-methoxybenzyl)-3-methyl-2,4-dioxo-1,3,8-triazaspiro[4.5]decan-8-yl)-3-methyl-1-oxobutan-2-yl)-5-(trifluoromethyl)benzamide] |
| < 500 | COc1ccc(CN2C(=O)N(C)C(=O)C23CCN(C(=O)[C@H](NC(=O)c2cc(C(F)(F)F)ccc2F)C(C)C)CC3)c(F)c1 [Example 108, (R)-2-Fluoro-N-(1-(1-(2-fluoro-4-methoxybenzyl)-3-methyl-2,4-dioxo-1,3,8-triazaspiro[4.5]decan-8-yl)-3-methyl-1-oxobutan-2-yl)-5-(trifluoromethyl)benzamide] |
| < 500 | CN1C(=O)N(Cc2ccc3nccnc3c2)C2(CCN(C(=O)[C@H](NC(=O)c3cc(C(F)(F)F)ccc3F)C3CCC3)CC2)C1=O [Example 110, (R)—N-(1-Cyclobutyl-2-(3-methyl-2,4-dioxo-1-(quinoxalin-6-ylmethyl)-1,3,8-triazaspiro[4.5]decan-8-yl)-2-oxoethyl)-2-fluoro-5-(trifluoromethyl)benzamide] |
| < 500 | CN1C(=O)N(Cc2ccc3nccnc3c2)C2(CCN(C(=O)[C@H](NC(=O)c3cc(C(F)(F)F)ccc3F)C3CCCC3)CC2)C1=O [Example 112, (R)—N-(1-Cyclopentyl-2-(3-methyl-2,4-dioxo-1-(quinoxalin-6-ylmethyl)-1,3,8-triazaspiro[4.5]decan-8-yl)-2-oxoethyl)-2-fluoro-5-(trifluoromethyl)benzamide] |
| ≥ 1000 | Cc1nc2cc(CN3C(=O)N(C)C(=O)C34CCN(C(=O)[C@H](NC(=O)c3cc(C(F)(F)F)ccc3F)C(C)C)CC4)ccn2n1 [Example 114, (R)-2-Fluoro-N-(3-methyl-1-(3-methyl-1-((2-methyl-[1,2,4]triazolo[1,5-a]pyridin-7-yl)methyl)-2,4-dioxo-1,3,8-triazaspiro[4.5]decan-8-yl)-1-oxobutan-2-yl)-5-(trifluoromethyl)benzamide] |
| ≥ 1000 | CC(C)[C@@H](NC(=O)c1cc(C(F)(F)F)ccc1F)C(=O)N1CCC2(CC1)C(=O)N(C)C(=O)N2Cc1cnn(C)c1 [Example 115, (R)-2-Fluoro-N-(3-methyl-1-(3-methyl-1-((1-methyl-1H-pyrazol-4-yl)methyl)-2,4-dioxo-1,3,8-triazaspiro[4.5]decan-8-yl)-1-oxobutan-2-yl)-5-(trifluoromethyl)benzamide] |
| < 500 | COc1ccc(CN2C(=O)N(C)C(=O)C23CCN(C(=O)[C@H](NC(=O)c2cc(C(F)(F)F)ccc2F)C(C)C)CC3)c(Cl)c1 [Example 119, (R)—N-(1-(1-(2-Chloro-4-methoxybenzyl)-3-methyl-2,4-dioxo-1,3,8-triazaspiro[4.5]decan-8-yl)-3-methyl-1-oxobutan-2-yl)-2-fluoro-5-(trifluoromethyl)benzamide] |
| 500 to 1000 | CC(C)[C@@H](NC(=O)c1cc(C(F)(F)F)ccc1F)C(=O)N1CCC2(CC1)C(=O)N(C)C(=O)N2Cc1ccc(=O)n(C)c1 [Example 120, (R)-2-Fluoro-N-(3-methyl-1-(3-methyl-1-((1-methyl-6-oxo-1,6-dihydropyridin-3-yl)methyl)-2,4-dioxo-1,3,8-triazaspiro[4.5]decan-8-yl)-1-oxobutan-2-yl)-5-(trifluoromethyl)benzamide] |
| ≥ 1000 | CC(=O)N1CC(CN2C(=O)N(C)C(=O)C23CCN(C(=O)[C@H](NC(=O)c2cc(C(F)(F)F)ccc2F)C(C)C)CC3)C1 [Example 121, (R)—N-(1-(1-((1-Acetylazetidin-3-yl)methyl)-3-methyl-2,4-dioxo-1,3,8-triazaspiro[4.5]decan-8-yl)-3-methyl-1-oxobutan-2-yl)-2-fluoro-5-(trifluoromethyl)benzamide] |
| ≥ 1000 | CCN1C(=O)N(C)C(=O)C12CCN(C(=O)[C@H](NC(=O)c1cc(C(F)(F)F)ccc1F)C(C)C)CC2 [Example 123, (R)—N-(1-(1-Ethyl-3-methyl-2,4-dioxo-1,3,8-triazaspiro[4.5]decan-8-yl)-3-methyl-1-oxobutan-2-yl)-2-fluoro-5-(trifluoromethyl)benzamide] |

The remaining lines, values behind:

| Structure (SMILES) | IC50 [nM] |
| --- | --- |
| Cc1nc2ccc(CN3C(=O)N(C)C(=O)C34CCN(C(=O)[C@H](NC(=O)c3cc(C(F)(F)F)ccc3F)C(C)C)CC4)cc2[nH]1 [Example 106, (R)-2-Fluoro-N-(3-methyl-1-(3-methyl-1-((2-methyl-1H-benzo[d]imidazol-6-yl)methyl)-2,4-dioxo-1,3,8-triazaspiro[4.5]decan-8-yl)-1-oxobutan-2-yl)-5-(trifluoromethyl)benzamide] | ≥ 1000 |
| CN1C(=O)N(Cc2ccc3nccnc3c2)C2(CCN(C(=O)[C@H](NC(=O)c3cc(C(F)(F)F)ccc3F)C3CC3)CC2)C1=O [Example 109, (R)—N-(1-Cyclopropyl-2-(3-methyl-2,4-dioxo-1-(quinoxalin-6-ylmethyl)-1,3,8-triazaspiro[4.5]decan-8-yl)-2-oxoethyl)-2-fluoro-5-(trifluoromethyl)benzamide] | < 500 |
| CC(C)[C@@H](NC(=O)c1cc(C(F)(F)F)ccc1F)C(=O)N1CCC2(CC1)C(=O)N(C)C(=O)N2Cc1ncccn1 [Example 111, (R)-2-Fluoro-N-(3-methyl-1-(3-methyl-2,4-dioxo-1-(pyrimidin-2-ylmethyl)-1,3,8-triazaspiro[4.5]decan-8-yl)-1-oxobutan-2-yl)-5-(trifluoromethyl)benzamide] | ≥ 1000 |
| CC(C)[C@@H](NC(=O)c1cc(C(F)(F)F)ccc1F)C(=O)N1CCC2(CC1)C(=O)N(C)C(=O)N2Cc1ccnc(C#N)c1 [Example 113] | ≥ 1000 |
| Cc1nc2cc(CN3C(=O)N(C)C(=O)C34CCN(C(=O)[C@H](NC(=O)c3cc(C(F)(F)F)ccc3F)C(C)C)CC4)ccc2o1 [Example 116, (R)-2-Fluoro-N-(3-methyl-1-(3-methyl-1-((2-methylbenzo[d]oxazol-5-yl)methyl)-2,4-dioxo-1,3,8-triazaspiro[4.5]decan-8-yl)-1-oxobutan-2-yl)-5-(trifluoromethyl)benzamide] | < 500 |
| Cc1csc(CN2C(=O)N(C)C(=O)C23CCN(C(=O)[C@H](NC(=O)c2cc(C(F)(F)F)ccc2F)C(C)C)CC3)n1 [Example 117, (R)-2-Fluoro-N-(3-methyl-1-(3-methyl-1-((4-methylthiazol-2-yl)methyl)-2,4-dioxo-1,3,8-triazaspiro[4.5]decan-8-yl)-1-oxobutan-2-yl)-5-(trifluoromethyl)benzamide] | ≥ 1000 |
| Cc1nc2ccc(CN3C(=O)N(C)C(=O)C34CCN(C(=O)[C@H](NC(=O)c3cc(C(F)(F)F)ccc3F)C(C)C)CC4)cc2o1 [Example 118, (R)-2-Fluoro-N-(3-methyl-1-(3-methyl-1-((2-methylbenzo[d]oxazol-6-yl)methyl)-2,4-dioxo-1,3,8-triazaspiro[4.5]decan-8-yl)-1-oxobutan-2-yl)-5-(trifluoromethyl)benzamide] | < 500 |
| CC(C)[C@@H](NC(=O)c1cc(C(F)(F)F)ccc1F)C(=O)N1CCC2(CC1)C(=O)N(C)C(=O)N2C [Example 122, (R)—N-(1-(1,3-Dimethyl-2,4-dioxo-1,3,8-triazaspiro[4.5]decan-8-yl)-3-methyl-1-oxobutan-2-yl)-2-fluoro-5-(trifluoromethyl)benzamide] | ≥ 1000 |
| CC(C)CCN1C(=O)N(C)C(=O)C12CCN(C(=O)[C@H](NC(=O)c1cc(C(F)(F)F)ccc1F)C(C)C)CC2 [Example 124, (R)-2-Fluoro-N-(1-(1-isopentyl-3-methyl-2,4-dioxo-1,3,8-triazaspiro[4.5]decan-8-yl)-3-methyl-1-oxobutan-2-yl)-5-(trifluoromethyl)benzamide] | < 500 |
| CC(C)[C@@H](NC(=O)c1cc(C(F)(F)F)ccc1F)C(=O)N1CCC2(CC1)C(=O)N(C)C(=O)N2C1CCCC1 [Example 125, (R)—N-(1-(1-Cyclopentyl-3-methyl-2,4-dioxo-1,3,8-triazaspiro[4.5]decan-8-yl)-3-methyl-1-oxobutan-2-yl)-2-fluoro-5-(trifluoromethyl)benzamide] | < 500 |
| CC(C)[C@@H](NC(=O)c1cc(C(F)(F)F)ccc1F)C(=O)N1CCC2(CC1)NC(=O)N(C)C2=O [Example 126, (R)-2-Fluoro-N-(3-methyl-1-(3-methyl-2,4-dioxo-1,3,8-triazaspiro[4.5]decan-8-yl)-1-oxobutan-2-yl)-5-(trifluoromethyl)benzamide] | ≥ 1000 |

Reference: patent US10233182B2, “Substituted spirocyclic inhibitors of autotaxin” (X-Rx, Inc., priority 2014, dated 2019)
